Format in all cases: in vivo
Data set [1] concerns HFD-fed C57BL/6J mice. In words: AST and ALT enzymatic activities in liver homogenates. Particulars: for ALT / AST: 11 weeks, mean ± SEM. As for the experimental part: Measure of Metabolic Parameters and Liver Enzymes. ALT and AST enzymatic activities and liver samples (n=4-8 per group) were homogenized in 10 mL of 100 mM
(§1) Tris (pH=7.8) per gram of tissue. The homogenates were centrifuged at 10 000 g for 15 minutes at 4° C., and the supernatants were tested for ALT and AST activity using colorimetric assay kits purchased from Cayman Chemical (Ann Arbor, MI, USA). Triglycerides and total cholesterol were analyzed with commercially available kits (Cayman Chemical, Ann Arbor, MI, USA). Plasma glucose at week 11 was measured with a colorimetric assay, and plasma insulin, MCP-1, IL-6, and PCSK9 were analyzed by ELISA kits purchased from Abcam (Cambridge, UK).

Data set [2] concerns HFD-fed C57BL/6J mice. In words: HFD feeding study: body weight, glucose tolerance test, plasma metabolic parameters. Conditions: for Final body weight: 11 weeks of HFD ± test compound; for Weight gain over the feeding period versus control HFD-fed mice: XP 30, XN 60 mg/kg body weight/day in HFD; for Glucose tolerance test (GTT) versus control: after 4 weeks of feeding, 6 hours fasting, 1.5 g/kg D-glucose i.p.; for Initial body weight: male mice, HFD ± test compound; for IL-6 / Insulin / MCP1 / PCSK9: plasma. As for the experimental part:
Animal Studies. All animal experiments were performed in accordance with institutional and National Health and Medical Research Council guidelines. The experimental protocol was approved by the Institutional Animal Care and Use Committee at Oregon State University and the studies were carried out in accordance with the approved protocol. Nine-week-old wildtype male C57BL/6J mice were obtained from Jackson Laboratory (Bar Harbor, ME, USA). Mice were single-housed in ventilated cages under a 12-12 h light-dark cycle and fed a HFD (Dyets Inc., Bethlehem, PA, USA) containing 60, 20, and 20% total calories from fat, carbohydrate, and protein, respectively. XN (99% purity, Hopsteiner Inc., New York, NY, USA) and XP (99% purity) were mixed into the diet at a concentration of 0.066% for XN and 0.033% for XP to reach respective doses of 60 mg/kg body weight/day and 30 mg/kg body weight/day. Studies included eight HFD-fed mice, eight XP-treated mice, and four XN-treated mice; food intake and body weights were recorded weekly. At week 4, glucose tolerance was tested after 6 hours fasting. Following intraperitoneal bolus injection of 1.5 g/kg of D-glucose, blood glucose levels were measured at 0, 15, 30, 60, and 120 minures using a One Touch UltraMini glucometer (LifeScan Inc., Milpitas, CA, USA). At the end of 11 weeks of feeding, mice were euthanized, and blood, liver, BAT, epididymal WAT, and cortex samples were collected for analyses.
as §1

Data set [3] has as its system UCP1. As to the kind of experiment: Western blotting of UCP1 in skeletal muscle, BAT and WAT. Conditions: HFD-fed mice, versus control. As for the experimental part: Western Blotting. Approximately 100 mg of frozen BAT and WAT was homogenized in RIPA buffer with protease and phosphatase inhibitors (Santa Cruz Biotechnology, Dallas, TX, USA). Tissues were sonicated for 30 seconds, and the homogenates were centrifuged at 15700 g for 10 minutes to collect the supernatants. Protein (30 μg) was separated by SDS-PAGE using 4-15% MP TGX Gels (Bio-Rad, Hercules, CA, USA) and blotted onto nitrocellulose membranes. The membranes were blocked with 5% nonfat milk for 90 minutes and incubated with antibodies against GAPDH (#0411, Santa Cruz Biotechnology, Dallas, TX, USA) or UCP1 (#10983, Genetex, Irvine, CA, USA) for 60 minutes. After a second reaction with secondary antibodies (horseradish peroxidase-conjugated IgG antibodies), the protein bands on the nitrocellulose membranes were visualized by enhanced chemiluminescence substrate on an electrochemical luminescence (ECL) imager (Thermo Fisher Scientific, Waltham, MA, USA). Band intensities were quantified by densitometry using Image J software.

On to `COc1cc(O)c(CC=C(C)C)c(O)c1C(=O)/C=C/c1ccc(O)cc1` [XN, xanthohumol], for which, in data set [1], the “AST and ALT test results versus control” value is given as “did not change substantially”; the ALT was 0.22 ± 0.06 U/mL; the AST came out at 0.16 ± 0.03 U/mL. In data set [2] (11 weeks), the “Plasma TGs versus control” value was “increase” and the “Plasma concentrations of PCSK9 versus control” value is recorded as “not affected”. In data set [2] (mean ± SEM), this compound yielded a Final body weight of 44.25 ± 1.97 g and an Initial body weight of 26.37 ± 0.22 g. In data set [2] (11 weeks, mean ± SEM), the Fasting glucose stood at 142.67 ± 6.29 mg/dL, the HOMA-IR was 26.76 ± 13.47, the Plasma cholesterol was determined as 170.88 ± 6.76 mg/dL and the IL-6 was 5.03 ± 3.3 pg/mL. In addition, in data set [2] (11 weeks, mean ± SEM), the Insulin is reported as 71.17 ± 34.38 μU/mL, the MCP1 came out at 57.34 ± 15.74 pg/mL and the PCSK9 is given as 215 ± 35.12 ng/mL. Moreover, in data set [2], the “Weight gain over the feeding period versus control HFD-fed mice” value is reported as “no change in weight” and the “Glucose tolerance test (GTT) versus control” value is “no effect on glucose clearance”. Further, in data set [3], the “UCP1 protein expression in WAT” value is reported as “decreased”; the “UCP1 protein expression in skeletal muscle and BAT” value is on record as “no significant changes”.

With `COc1cc(O)c(CC=C(C)C)c(O)c1-c1cc(-c2ccc(O)cc2)n(C)n1` [XP, 4-(5-(4-hydroxyphenyl)-1-methyl-1H-pyrazol-3-yl)-5-methoxy-2-(3-methylbut-2-en-1-yl)benzene-1,3-diol], in data set [1], the “AST and ALT test results versus control” value is recorded as “did not change substantially”; the ALT came to 0.38 ± 0.07 U/mL; the AST was 0.30 ± 0.06 U/mL. In addition, in data set [1] (versus control, not significant), the “Decrease in liver enzymes (AST, ALT)” value is reported as 30%. Moreover, in data set [2] (11 weeks), the “IL-6 plasma level versus control” value is reported as “not significantly different”; the “MCP-1/CCL2 plasma levels versus control” value is “not decreased”; the “Plasma concentrations of PCSK9 versus control” value was “not affected”; the “Triglycerides (TG) and total cholesterol concentrations in plasma versus control” value was “no changes”. In data set [2] (mean ± SEM), this compound returned a Final body weight of 37.87 ± 1.72 g and an Initial body weight of 23.66 ± 0.70 g. Also, in data set [2] (11 weeks, mean ± SEM), the Fasting glucose worked out at 128.98 ± 7.18 mg/dL, the “Plasma TG” value was 81.81 ± 4.33 mg/dL, the Plasma cholesterol worked out at 160.47 ± 4.73 mg/dL and the IL-6 stood at 5.78 ± 2.04 pg/mL. Further, in data set [2] (11 weeks, mean ± SEM), the Insulin is listed as 34.36 ± 3.73 μU/mL, the MCP1 came out at 45.00 ± 4.68 pg/mL and the PCSK9 is reported as 217.166 ± 26.88 ng/mL. In data set [2], the “Weight gain over the feeding period versus control HFD-fed mice” value is reported as “gained significantly less weight” and the “Glucose tolerance test (GTT) versus control” value is on record as “improved glucose tolerance”. In addition, the “Decrease of HOMA-IR (insulin resistance score)” value in data set [2] (after 11 weeks of feeding, versus control) was found to be 77.9%. Further, the Fasting glucose a in data set [2] (measured at 4 weeks, mean ± SEM) is 143.62 ± 7.54 mg/dL. Moreover, the “UCP1 protein expression in skeletal muscle, BAT, or WAT” value in data set [3] is “no effect”.
